Data as given in PubChem BioAssay (NCI).
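GI50 marks 50% less growth. TGI denotes the concentration required for complete inhibition of growth.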

Assays:
Experiment in all cases: NCI anticancer screen, dose series, 384-well format
786-0 renal = test system: 786-0 renal
A498 renal = test system: A498 renal
A549 NSCLC = test system: A549 NSCLC
ACHN renal = test system: ACHN renal
BT-549 breast = test system: BT-549 breast
CAKI-1 renal = test system: CAKI-1 renal
COLO 205 colon = test system: COLO 205 colon
DU-145 prostate = test system: DU-145 prostate
EKVX NSCLC = test system: EKVX NSCLC
HCT-116 colon = test system: HCT-116 colon
HCT-15 colon = test system: HCT-15 colon
HL-60(TB) leukemia = test system: HL-60(TB) leukemia
HOP-62 NSCLC = test system: HOP-62 NSCLC
HOP-92 NSCLC = test system: HOP-92 NSCLC
HS 578T breast = test system: HS 578T breast
HT29 colon = test system: HT29 colon
IGROV1 ovarian = test system: IGROV1 ovarian
K-562 leukemia = test system: K-562 leukemia
KM12 colon = test system: KM12 colon
M14 melanoma = test system: M14 melanoma
MALME-3M melanoma = test system: MALME-3M melanoma
MCF7 breast = test system: MCF7 breast
MDA-MB-231 breast = test system: MDA-MB-231 breast
MDA-MB-435 melanoma = test system: MDA-MB-435 melanoma
MDA-MB-468 breast = test system: MDA-MB-468 breast
MOLT-4 leukemia = test system: MOLT-4 leukemia
NCI-H226 lung = test system: NCI-H226 lung
NCI-H23 lung = test system: NCI-H23 lung
NCI-H322M lung = test system: NCI-H322M lung
NCI-H460 NSCLC = test system: NCI-H460 NSCLC
NCI-H522 lung = test system: NCI-H522 lung
OVCAR-3 ovarian = test system: OVCAR-3 ovarian
OVCAR-4 ovarian = test system: OVCAR-4 ovarian
OVCAR-5 ovarian = test system: OVCAR-5 ovarian
OVCAR-8 ovarian = test system: OVCAR-8 ovarian
PC-3 prostate = test system: PC-3 prostate
RXF 393 renal = test system: RXF 393 renal
SF-268 CNS = test system: SF-268 CNS
SF-295 CNS = test system: SF-295 CNS
SF-539 CNS = test system: SF-539 CNS
SK-MEL-2 melanoma = test system: SK-MEL-2 melanoma
SK-MEL-28 melanoma = test system: SK-MEL-28 melanoma
SK-MEL-5 melanoma = test system: SK-MEL-5 melanoma
SK-OV-3 ovarian = test system: SK-OV-3 ovarian
SN12C renal = test system: SN12C renal
SNB-19 CNS = test system: SNB-19 CNS
SNB-75 CNS = test system: SNB-75 CNS
SR leukemia = test system: SR leukemia
SW-620 colon = test system: SW-620 colon
T-47D breast = test system: T-47D breast
TK-10 renal = test system: TK-10 renal
U251 glioblastoma = test system: U251 glioblastoma
UACC-257 melanoma = test system: UACC-257 melanoma
UACC-62 melanoma = test system: UACC-62 melanoma
UO-31 renal = test system: UO-31 renal

CC(C)N(C[C@H]1O[C@@H](n2cnc3c(N)ncnc32)[C@H](O)[C@@H]1O)C1CC(CCc2nc3ccc(C(C)(C)C)cc3[nH]2)C1 (stereo not given in full)
GI50 ([…]-0 renal): > 100 µM | TGI (786-0 renal): > 100 µM | GI50 (A498 renal): > 100 µM | TGI (A498 renal): > 100 µM | GI50 (A549 NSCLC): > 100 µM | TGI (A549 NSCLC): > 100 µM | GI50 (ACHN renal): > 100 µM | TGI (ACHN renal): > 100 µM | GI50 (BT-549 breast): 18 µM | TGI (BT-549 breast): 32.5 µM | GI50 (CAKI-1 renal): > 100 µM | TGI (CAKI-1 renal): > 100 µM | GI50 (COLO 205 colon): 25.6 µM | TGI (COLO 205 colon): 58.6 µM | GI50 (DU-145 prostate): > 100 µM | TGI (DU-145 prostate): > 100 µM | GI50 (EKVX NSCLC): 88.1 µM | TGI (EKVX NSCLC): > 100 µM | GI50 (HCT-116 colon): 41.9 µM | TGI (HCT-116 colon): > 100 µM | GI50 (HCT-15 colon): > 100 µM | TGI (HCT-15 colon): > 100 µM | GI50 (HL-60(TB) leukemia): 13.3 µM | TGI (HL-60(TB) leukemia): 26 µM | GI50 (HOP-62 NSCLC): > 100 µM | TGI (HOP-62 NSCLC): > 100 µM | GI50 (HOP-92 NSCLC): 19.2 µM | TGI (HOP-92 NSCLC): 40.9 µM | GI50 (HS 578T breast): 20.5 µM | TGI (HS 578T breast): 37 µM | GI50 (HT29 colon): 19.1 µM | TGI (HT29 colon): 35.3 µM | GI50 (IGROV1 ovarian): 51 µM | TGI (IGROV1 ovarian): > 100 µM | GI50 (K-562 leukemia): 31 µM | TGI (K-562 leukemia): > 100 µM | GI50 (KM12 colon): 39 µM | TGI (KM12 colon): > 100 µM | GI50 (M14 melanoma): 20 µM | TGI (M14 melanoma): 37.1 µM | GI50 (MALME-3M melanoma): 18 µM | TGI (MALME-3M melanoma): 32 µM | GI50 (MCF7 breast): 20 µM | TGI (MCF7 breast): 45.2 µM | GI50 (MDA-MB-231 breast): 35.4 µM | TGI (MDA-MB-231 breast): > 100 µM | GI50 (MDA-MB-435 melanoma): 17.9 µM | TGI (MDA-MB-435 melanoma): 31.8 µM | GI50 (MDA-MB-468 breast): 24.8 µM | TGI (MDA-MB-468 breast): 50.1 µM | GI50 (MOLT-4 leukemia): 18.8 µM | TGI (MOLT-4 leukemia): 32.8 µM | GI50 (NCI-H226 lung): > 100 µM | TGI (NCI-H226 lung): > 100 µM | GI50 (NCI-H23 lung): 46.6 µM | TGI (NCI-H23 lung): > 100 µM | GI50 (NCI-H322M lung): > 100 µM | TGI (NCI-H322M lung): > 100 µM | GI50 (NCI-H460 NSCLC): 20.3 µM | TGI (NCI-H460 NSCLC): 43 µM | GI50 (NCI-H522 lung): 20.1 µM | TGI (NCI-H522 lung): 35.3 µM | GI50 (OVCAR-3 ovarian): 49.6 µM | TGI (OVCAR-3 ovarian): > 100 µM | GI50 (OVCAR-4 ovarian): 79.9 µM | TGI (OVCAR-4 ovarian): > 100 µM | GI50 (OVCAR-5 ovarian): > 100 µM | TGI (OVCAR-5 ovarian): > 100 µM | GI50 (OVCAR-8 ovarian): > 100 µM | TGI (OVCAR-8 ovarian): > 100 µM | GI50 (PC-3 prostate): 47 µM | TGI (PC-3 prostate): > 100 µM | GI50 (RXF 393 renal): 25.3 µM | TGI (RXF 393 renal): 79 µM | GI50 (SF-268 CNS): 22.9 µM | TGI (SF-268 CNS): 47.9 µM | GI50 (SF-295 CNS): > 100 µM | TGI (SF-295 CNS): > 100 µM | GI50 (SF-539 CNS): 43.9 µM | TGI (SF-539 CNS): > 100 µM | GI50 (SK-MEL-2 melanoma): 15.8 µM | TGI (SK-MEL-2 melanoma): 29.3 µM | GI50 (SK-MEL-28 melanoma): 18 µM | TGI (SK-MEL-28 melanoma): 31.9 µM | GI50 (SK-MEL-5 melanoma): 23.9 µM | TGI (SK-MEL-5 melanoma): 69.4 µM | GI50 (SK-OV-3 ovarian): > 100 µM | TGI (SK-OV-3 ovarian): > 100 µM | GI50 (SN12C renal): > 100 µM | TGI (SN12C renal): > 100 µM | GI50 (SNB-19 CNS): > 100 µM | TGI (SNB-19 CNS): > 100 µM | GI50 (SNB-75 CNS): 22.5 µM | TGI (SNB-75 CNS): 44.9 µM | GI50 (SR leukemia): 17.9 µM | TGI (SR leukemia): 31.8 µM | GI50 (SW-620 colon): 52.3 µM | TGI (SW-620 colon): > 100 µM | GI50 (T-47D breast): 39 µM | TGI (T-47D breast): > 100 µM | GI50 (TK-10 renal): 83.9 µM | TGI (TK-10 renal): > 100 µM | GI50 (U251 glioblastoma): 41.7 µM | TGI (U251 glioblastoma): > 100 µM | GI50 (UACC-257 melanoma): 18.5 µM | TGI (UACC-257 melanoma): 33.4 µM | GI50 (UACC-62 melanoma): 16.9 µM | TGI (UACC-62 melanoma): 30.7 µM | GI50 (UO-31 renal): > 100 µM | TGI (UO-31 renal): > 100 µM
